The text below walks through data of US20230173008A1, “Composition for preventing hair loss or promoting hair growth comprising extract of above-ground part of carrots” (DAEBONG LS, LTD, priority 2020, published 2023).

Like-named read-outs stand apart in the source and are kept apart here.

The test system of this experiment is human dermal papilla cells. Briefly: cells. The note with it: Human dermal papilla cell, read-out: viability of human dermal papilla cells.

Procedure: Human follicle dermal papilla cells were purchased from PromoCell Co., and a human follicle dermal papilla cell growth medium containing fetal calf serum, bovine pituitary extract, basic fibroblast growth factor and insulin was used and cultured at 37° C. and 5% CO2 incubator.
When the cultured human dermal papilla cells were dispensed in a 48 well plate at 1 × 10^4 cell/mL, and when the amount reached 80% or more, the extract of Example was treated at the concentrations shown in Table 2 below. The positive control group was treated with minoxidil at concentrations of 10 and 50 µM. After culturing the cells for 24, 48, and 72 hours, 200 µL of a 0.5 mg/mL solution of MTT diluted in the medium were added and cultured at 37° C. for 4 hours. After removing the solution, adding 200 µL of DMSO, and transferring 100 µL to a 96 well plate, absorbance was measured at 585 nm using a microplate reader. The average absorbance value for each sample group was obtained, and the cell viability was evaluated by comparing the average absorbance value with the absorbance value of the control group.

The viability is a read-out of living cells in per cent, often relative to untreated cells. Take `Nc1cc(N2CCCCC2)nc(N)[n+]1[O-]` [Positive control group, minoxidil]: the viability at 10 µM was 104% (24 h), 107% (48 h) and 115% (72 h). Besides, the viability at 50 µM turned out to be 107% (24 h), 116% (48 h) and 125% (72 h).
